Consider 20 compounds from patent US11312727B1, “Macrocyclic flu endonuclease inhibitors” (Janssen BioPharma, Inc., priority 2018, dated 2022).

Structures are written as SMILES.

The assay relates to Influenza strain A549 A/WSN/33 (H1N1). Description: microbe, parasite or virus in culture. The format is cell-based. To be noted: Influenza A virus, A549, 20 h, A549 cells, influenza A/WSN/33 (H1N1), 20 hours incubation; read-out: A549_A(H1N1) EC50.

The EC50 is the concentration giving half of the maximal effect. For the compound `CC[C@@H]1/C=C/COc2c(ccc(Cl)c2F)[C@@H](c2ccccc2)N2CN1C(=O)c1c(O)c(=O)ccn12` (single isomer, unassigned) [Compound 170BB, (9*R,18*R,E)-3-chloro-9-ethyl-4-fluoro-12-hydroxy-18-phenyl-6,9-dihydro-18H-10,17-methanobenzo[b]pyrido[1,2-f][1]oxa[5,6,9]triazacyclotridecine-11,13-dione], the concentration for a half-maximal effect (EC50) came to 2 nM.
The result for `COC[C@H]1/C=C/COc2cc(F)c(F)c3c2[C@H](c2ccccc2SC3)N2CN1C(=O)c1c(O)c(=O)ccn12` (single isomer, unassigned) [Compound 177AA, (9*R,17a*R,*E)-24,25-difluoro-12-hydroxy-9-(methoxymethyl)-2,6,9,17a-tetrahydro-3,4-(epiprop[1]en[1]yl[3]ylidene)-10,17-methanobenzo[6,7]thiepino[4,5-c]pyrido[1,2-f][1]oxa[5,6,9]triazacyclotridecine-11,13-dione] reads 15 nM; that for `O=C1c2c(O)c(=O)ccn2N2CN1[C@@]1(/C=C/COc3cc(F)c(F)c4c3[C@H]2c2ccccc2SC4)CCOC1` (single isomer, unassigned) [Compound 176BA, (3*R, 17a′*S,*E)-24′,25′-difluoro-12′-hydroxy-2′,4,5,17a′-tetrahydro-2H,6′H-spiro[furan-3,9′-[3,4](epiprop[1]en[1]yl[3]ylidene)[10,17]methanobenzo[6,7]thiepino[4,5-c]pyrido[1,2-f][1]oxa[5,6,9]triazacyclotridecine]-11′,13′-dione], 1.1 nM.
With `CC[C@@H]1/C=C/COc2c(ccc(F)c2F)[C@@H](c2ccccc2C)N2CN1C(=O)c1c(O)c(=O)ccn12` (single isomer, unassigned) [Compound 167AB, (9*R,18*R,E)-9-ethyl-3,4-difluoro-12-hydroxy-18-(o-tolyl)-6,9-dihydro-18H-10,17-methanobenzo[b]pyrido[1,2-f][1]oxa[5,6,9]triazacyclotridecine-11,13-dione], the concentration giving a half-maximal response (EC50) amounted to 0.96 nM.
The result for `O=C1c2c(O)c(=O)ccn2N2CN1[C@H]1C[C@H]1CCOc1cccc3c1[C@H]2c1ccccc1SC3` (stereo in doubt) [Compound 166B, cis-(11a*RS,12a*RS,13S,20a*S)-15-hydroxy-6,11,11a,12,12a,20a-hexahydro-10H-7,8-(epiprop[1]en[1]yl[3]ylidene)-13,20-methanobenzo[6,7]thiepino[4,5-c]cyclopropa[j]pyrido[1,2-f][1]oxa[5,6,9]triazacyclotridecine-14,16-dione] reads 28 nM.
The result for `CC[C@H]1/C=C/COc2cccc3c2[C@@H](c2ccccc2SC3)N2CN1C(=O)c1c(O)c(=O)ccn12` [Compound 92BA, (9S,17aS,E)-9-ethyl-12-hydroxy-2,6,9,17a-tetrahydro-3,4-(epiprop[1]en[1]yl[3]ylidene)-10,17-methanobenzo[6,7]thiepino[4,5-c]pyrido[1,2-f][1]oxa[5,6,9]triazacyclotridecine-11,13-dione] reads 0.7 nM; that for `CC[C@H]1/C=C/COc2c(ccc(Cl)c2F)[C@@H](c2ccccc2)N2CN1C(=O)c1c(O)c(=O)ccn12` (single isomer, unassigned) [Compound 170BA, (9*S,18*R,E)-3-chloro-9-ethyl-4-fluoro-12-hydroxy-18-phenyl-6,9-dihydro-18H-10,17-methanobenzo[b]pyrido[1,2-f][1]oxa[5,6,9]triazacyclotridecine-11,13-dione], 24 nM; that for `O=C1c2c(O)c(=O)ccn2N2CN1C1(/C=C/COc3cc(F)c(F)c4c3[C@H]2c2ncccc2SC4)CCC1` (single isomer, unassigned) [Compound 168B, (21a′*S,*E)-24′,25′-difluoro-16′-hydroxy-6′,21a′-dihydro-10′H-spiro[cyclobutane-1,13′-[7,8](epiprop[1]en[1]yl[3]ylidene)[14,21]methanopyrido[1,2-f]pyrido[2′,3′:6,7]thiepino[4,5-c][1]oxa[5,6,9]triazacyclotridecine]-15′,17′-dione], 0.6 nM.
The result for `O=C1c2c(O)c(=O)ccn2N2CN1[C@]1(/C=C/COc3cc(F)c(F)c4c3[C@H]2c2ccccc2SC4)CCOC1` (single isomer, unassigned) [Compound 176BB, (3*S, 17a′*S,*E)-24′,25′-difluoro-12′-hydroxy-2′,4,5,17a′-tetrahydro-2H,6′H-spiro[furan-3,9′-[3,4](epiprop[1]en[1]yl[3]ylidene)[10,17]methanobenzo[6,7]thiepino[4,5-c]pyrido[1,2-f][1]oxa[5,6,9]triazacyclotridecine]-11′,13′-dione] reads 1.4 nM.
`O=C1c2c(O)c(=O)ccn2N2CN1C1(/C=C/COc3cc(F)cc4c3[C@@H]2c2ccccc2SC4)CCC1` (single isomer, unassigned) [Compound 180A, (17a′*R,*E)-24′-fluoro-12′-hydroxy-2′,17a′-dihydro-6′H-spiro[cyclobutane-1,9′-[3,4](epiprop[1]en[1]yl[3]ylidene)[10,17]methanobenzo[6,7]thiepino[4,5-c]pyrido[1,2-f][1]oxa[5,6,9]triazacyclotridecine]-11′,13′-dione]: the EC50 was determined as 29 nM.
The result for `CC(C)[C@H]1/C=C/COc2cc(F)c(F)c3c2[C@H](c2ccccc2SC3)N2CN1C(=O)c1c(O)c(=O)ccn12` (single isomer, unassigned) [Compound 169BA, (9*S,17a*R,*E)-24,25-difluoro-12-hydroxy-9-isopropyl-2,6,9,17a-tetrahydro-3,4-(epiprop[1]en[1]yl[3]ylidene)-10,17-methanobenzo[6,7]thiepino[4,5-c]pyrido[1,2-f][1]oxa[5,6,9]triazacyclotridecine-11,13-dione] reads 0.83 nM; that for `Cc1ccccc1[C@H]1c2ccc(F)c(F)c2OC/C=C/C2(CCC2)N2CN1n1ccc(=O)c(O)c1C2=O` (single isomer, unassigned) [Compound 174B, (18′*S,*E)-3′,4′-difluoro-12′-hydroxy-18′-(o-tolyl)-6′H,18′H-spiro[cyclobutane-1,9′-[10,17]methanobenzo[b]pyrido[1,2-f][1]oxa[5,6,9]triazacyclotridecine]-11′,13′-dione], 1.2 nM; that for `O=C1c2c(O)c(=O)ccn2N2CN1C/C=C\COc1c(ccc(F)c1F)[C@H]2c1ccccc1CF` (single isomer, unassigned) [Compound 175A, (18*R,Z)-3,4-difluoro-18-(2-(fluoromethyl)phenyl)-12-hydroxy-6,9-dihydro-18H-10,17-methanobenzo[b]pyrido[1,2-f][1]oxa[5,6,9]triazacyclotridecine-11,13-dione], 2.3 nM.
The result for `CC[C@H]1/C=C/COc2c(ccc(F)c2Cl)[C@@H](c2ccccc2)N2CN1C(=O)c1c(O)c(=O)ccn12` (single isomer, unassigned) [Compound 173BA, (9*S,18*R,*E)-4-chloro-9-ethyl-3-fluoro-12-hydroxy-18-phenyl-6,9-dihydro-18H-10,17-methanobenzo[b]pyrido[1,2-f][1]oxa[5,6,9]triazacyclotridecine-11,13-dione] reads 26 nM; that for `COC[C@@H]1/C=C/COc2cc(F)c(F)c3c2[C@H](c2ccccc2SC3)N2CN1C(=O)c1c(O)c(=O)ccn12` (single isomer, unassigned) [Compound 177AB, (9*S,17a*R,*E)-24,25-difluoro-12-hydroxy-9-(methoxymethyl)-2,6,9,17a-tetrahydro-3,4-(epiprop[1]en[1]yl[3]ylidene)-10,17-methanobenzo[6,7]thiepino[4,5-c]pyrido[1,2-f][1]oxa[5,6,9]triazacyclotridecine-11,13-dione], 0.67 nM.
The result for `CC[C@H]1/C=C/COc2c(ccc(F)c2F)[C@@H](c2ccccc2C)N2CN1C(=O)c1c(O)c(=O)ccn12` (single isomer, unassigned) [Compound 167AA, (9*S,18*R,E)-9-ethyl-3,4-difluoro-12-hydroxy-18-(o-tolyl)-6,9-dihydro-18H-10,17-methanobenzo[b]pyrido[1,2-f][1]oxa[5,6,9]triazacyclotridecine-11,13-dione] reads 0.91 nM; that for `CC[C@H]1/C=C/COc2c(ccc(F)c2F)[C@H](c2ccccc2C)N2CN1C(=O)c1c(O)c(=O)ccn12` (single isomer, unassigned) [Compound 167BA, (9*S,18*S,E)-9-ethyl-3,4-difluoro-12-hydroxy-18-(o-tolyl)-6,9-dihydro-18H-10,17-methanobenzo[b]pyrido[1,2-f][1]oxa[5,6,9]triazacyclotridecine-11,13-dione], > 50 nM; that for `CC[C@@H]1/C=C/COc2c(ccc(F)c2F)[C@H](c2ccccc2C)N2CN1C(=O)c1c(O)c(=O)ccn12` (single isomer, unassigned) [Compound 167BB, (9*R,18*S,E)-9-ethyl-3,4-difluoro-12-hydroxy-18-(o-tolyl)-6,9-dihydro-18H-10,17-methanobenzo[b]pyrido[1,2-f][1]oxa[5,6,9]triazacyclotridecine-11,13-dione], > 50 nM.
For the compound `O=C1c2c(O)c(=O)ccn2N2CN1C1(/C=C/COc3cc(F)cc4c3[C@H]2c2ccccc2SC4)CCC1` (single isomer, unassigned) [Compound 180B, (17a′*S,*E)-24′-fluoro-12′-hydroxy-2′,17a′-dihydro-6′H-spiro[cyclobutane-1,9′-[3,4](epiprop[1]en[1]yl[3]ylidene)[10,17]methanobenzo[6,7]thiepino[4,5-c]pyrido[1,2-f][1]oxa[5,6,9]triazacyclotridecine]-11′,13′-dione], the EC50 turned out to be 0.36 nM.
The result for `O=C1c2c(O)c(=O)ccn2N2CN1C/C=C\COc1c(F)cccc1[C@H]2c1cccc(F)c1` (single isomer, unassigned) [Compound 59A, (18*R,Z)-4-fluoro-18-(3-fluorophenyl)-12-hydroxy-6,9-dihydro-18H-10,17-methanobenzo[b]pyrido[1,2-f][1]oxa[5,6,9]triazacyclotridecine-11,13-dione] reads 5 nM.
